Experimental data from US10561720B2, “Pharmaceutical compositions, comprising a combination of select carriers, vitamins, tannins and flavonoids as antigen-specific immuno-modulators” (EpitoGenesis, Inc., priority 2011, dated 2020).

What was measured:
BALB/c mice = assay: cytokine responses in iliac lymph nodes after mucosal (IN/SL) and systemic (IM) vaccinations; assay type: in vivo; details: two mucosal (IN/SL) and one systemic (IM) boosting vaccinations vs. three IM vaccinations with Imject Alum; FIG. 4
murine air pouch model = murine air pouch model of local cytotoxicity, multiplex Luminex of pouch fluid; assay type: in vivo, mice; details: compared to injection of NIDS, FIG. 7
Method: A local cytotoxicity test was performed by employing the murine air pouch model.

mice = assay: serum TNFα and IL-6 at 6 hours following a single IM injection; assay type: in vivo; details: 6 hours after single IM vaccination; vs. NIDS or no adjuvant; FIG. 8
Method: To find further in vivo support of the above air pouch model results, in vivo production of early pro-inflammatory cytokines TNFα and IL-6 were determined in sera of mice at 6 hours following a single IM injection of NIDS vs. poly (I:C) vs. no adjuvant.

Female BALB/c mice = assay: Example 5: IM vaccination with gp120 BaL in oleic acid formulations, serum gp120-specific IgG1 ELISA at 2WP2; assay type: in vivo; details: 40% oleic acid, compared to oleic acid plus EGCG, VA plus EGCG alone or no adjuvant, FIG. 11
Method: Groups of 4 female BALB/C mice were vaccinated intra-muscularly with various vaccine formulations containing 2.5 ug gp120 from the BaL Glade of HIV-1 twice at a 3 weeks interval. Serum gp120-specific IgG1 titers were measured by ELISA at 2 weeks post second vaccination (2WP2). The mice were vaccinated with combinations of retinyl palmitate (RP; 54 IU), epigallo catechin gallate (EGCG; 120 ug) in either 40% oleic acid, each alone or in various combinations.

[1] = air pouch supernatant 6 hours after injection

Molecule | local TH1 and TH2 cytokine responses in iliac lymph nodes (BALB/c mice) | TNFα (murine air pouch model; air pouch supernatant 6 hours after injection of seven mouse vaccine dose equivalents) | G-CSF (murine air pouch model; [1]) | IL-6 (murine air pouch model; [1]) | IP-10 (murine air pouch model; [1]) | KC (murine air pouch model; [1]) | MCP-1 (murine air pouch model; [1]) | MIP1-a (murine air pouch model; [1]) | MIP-1b (murine air pouch model; [1]) | MIP-2 (murine air pouch model; [1]) | RANTES (murine air pouch model; [1]) | serum IL-6 (mice) | serum TNFα (mice) | serum IgG1 antigen-specific responses (Female BALB/c mice)
poly (I:C) | enhanced | Significantly higher | Significantly higher | Significantly higher | Significantly higher | Significantly higher | Significantly higher | Significantly higher | Significantly higher | Significantly higher | Significantly higher | significantly enhanced | significantly enhanced | –
CCCCCCCC/C=C\CCCCCCCC(=O)O [oleic acid] | – | – | – | – | – | – | – | – | – | – | – | – | – | enhanced
